Source: US20160353738A1, “SYNERGISTIC HERBICIDAL COMPOSITION CONTAINING PENOXSULAM, TRICLOPYR AND BISPYRIBAC” (Dow AgroSciences LLC, priority 2014, published 2016)

Experiments:
[1] = test system: Rice (Oryza Sativa, ORYSA); assay: Safening activity to rice in the field, visual crop injury; conditions: 50 g ai/ha
Method: The treated plots and control plots were rated blind at various intervals after application.
Colby's equation was used to determine the herbicidal effects expected from the mixtures (Colby, S. R. Calculation of the synergistic and antagonistic response of herbicide combinations. Weeds 1967, 15, 20-22).
However, the experiments described herein were performed such that active ingredients A and B were combined and only the efficacy of the combination was determined. As such, Colby's equation simplifies to […]

[2] = test system: Rottboellia exaltata (Guineafowlgrass, ROOEX); assay: Postemergence herbicidal activity of mixtures in the field (rice small plots), visual weed control; format: in vivo; conditions: 50 g ai/ha
Source text: (§1) Bispyribac was used as Nominee® 100SC or Nominee® 400SC.
(§2) As such, Colby's equation simplifies to […]

[3] = test system: Digitaria species (DIGSS); assay: as above; format: in vivo; conditions: 50 g ai/ha
Source text: as §1, §2

[4] = test system: Ischaemum rugosum (Saramollagrass, ISCRU); assay: as above; format: in vivo; conditions: 50 g ai/ha
Source text: as §1, §2

[5] = test system: Echinochloa colonum (L.) LINK (junglerice, ECHCO); assay: as above; format: in vivo; conditions: 30 DAA, 52 g ai/ha
Source text: as §1, §2

COc1cc(OC)nc(Oc2cccc(Oc3nc(OC)cc(OC)n3)c2C(=O)[O-])n1.[Na+] [Bispyribac-Sodium, sodium 2,6-bis((4,6-dimethoxypyrimidin-2-yl)oxy)benzoate]
Percent (%) Crop Injury ([1]; 6 DAA): 2.2% | Percent (%) Crop Injury ([1]; 17 DAA): 0.9% | Percent (%) Crop Injury ([1]; 27 DAA): 3% | Percent (%) Visual Control ([2]; 16 DAA): 87.3% | Percent (%) Visual Control ([2]; 32 DAA): 69.5% | Percent (%) Visual Control ([3]; 6 DAA): 93% | Percent (%) Visual Control ([3]; 17 DAA): 88% | Percent (%) Visual Control ([4]; 6 DAA): 0% | Percent (%) Visual Control ([4]; 12 DAA): 30% | Percent (%) Visual Control ([4]; 16 DAA): 46.8% | Percent (%) Visual Control ([4]; 17 DAA): 0% | Percent (%) Visual Control ([4]; 27 DAA): 9.25% | Percent (%) Visual Control ([4]; 32 DAA): 0% | Percent (%) Visual Control ([4]; 40 DAA): 0% | Percent (%) Visual Control [5]: 86.25%
